Data taken from patent publication US9518018B2, “3-alkoxy, thioalkyl and amino-4-amino-6-(substituted)picolinates and their use as herbicides” (Dow AgroSciences LLC, priority 2011, dated 2016).

System: desired test plant species
Assay: Foliar-applied postemergence herbicidal activity in direct seeded rice (Table 6)
Type: in vivo
Settings: 21 DAA
From the text: Seeds or nutlets of the desired test plant species were planted in a soil matrix prepared by mixing a loam soil (43 percent silt, 19 percent clay, and 38 percent sand, with a pH of about 8.1 and an organic matter content of about 1.5 percent) and river sand in an 80 to 20 ratio. The soil matrix was contained in plastic pots with a surface area of 139.7 cm^2. When required to ensure good germination and healthy plants, a fungicide treatment and/or other chemical or physical treatment was applied. The plants were grown for 10-17 d in a greenhouse with an approximate 14-h photoperiod which was maintained at about 29° C. during the day and 26° C. during the night. Nutrients and water were added on a regular basis and supplemental lighting was provided with overhead metal halide 1000-Watt lamps as necessary. The plants were employed for testing when they reached the second or third true leaf stage. Treatments consisted of compounds 45, 34, and 66. Weighed amounts of technical compounds were placed in individual 25 mL glass vials and dissolved in 8 mL of 97:3 v/v acetone-DMSO to obtain stock solutions. […] The spray application solutions were prepared by removing 4 mL of the stock solution and diluting with 4 mL of 97:3 v/v acetone-DMSO and continued serial dilution to obtain 1⁄2×, 1⁄4×, 1⁄8×, and 1/16× rates of the high rate. Spray solutions were diluted to the appropriate final concentrations with the addition of 8 mL of an aqueous mixture of 1.875% (v/v) Agri-dex crop oil concentrate. The final 12-mL spray solutions each contained 1.25% (v/v) Agri-dex crop oil concentrate, 32.3% acetone, and 1.0% DMSO. Compound requirements are based upon a 12 mL application volume at a rate of 187 L/ha. Spray solutions were applied to the plant material with an overhead Mandel track sprayer equipped with […] nozzles calibrated to deliver 187 L/ha over an application area of 0.503 square meters (m^2) at a spray height of 18 inches ([…]) above average plant canopy height. Control plants were sprayed in the same manner with the solvent blank. The treated plants and control plants were placed in a greenhouse as described above and watered by sub-irrigation to prevent wash-off of the test compounds. After approximately 3 weeks, the condition of the test plants, compared with that of the untreated plants, was determined visually and scored on a scale of 0 to 100 percent where 0 corresponds to no injury and 100 corresponds to complete kill. By applying the well-accepted probit analysis as described by J. Berkson in Journal of the […], 48, 565 (1953) and by D. Finney in “Probit Analysis” Cambridge University Press (1952) or by plotting the mean data and fitting a logarithmic curve to the portion of the data where there was a dose response using Microsoft Excel®, the above data can be used to calculate GR50 and GR90 values, which are defined as growth reduction factors that correspond to the effective dose of herbicide required to kill or control 50 percent or 90 percent, respectively, of a target plant.

COC(=O)c1nc(-c2ccc(Cl)c(OC)c2F)c(F)c(N)c1OC [Compound 34]
Mean Visual Injury (%)-21 Days After Application ECHCO (ECHCO (Echinochloa colonum, junglerice), 4.38 g ae/ha): 70%
Mean Visual Injury (%)-21 Days After Application ECHCO (ECHCO (Echinochloa colonum, junglerice), 8.75 g ae/ha): 80%
Mean Visual Injury (%)-21 Days After Application ECHCO (ECHCO (Echinochloa colonum, junglerice), 17.5 g ae/ha): 92%
Mean Visual Injury (%)-21 Days After Application ECHCO (ECHCO (Echinochloa colonum, junglerice), 35 g ae/ha): 97%
Mean Visual Injury (%)-21 Days After Application ECHCO (ECHCO (Echinochloa colonum, junglerice), 70 g ae/ha): 98%
GR50 ECHCO (ECHCO (Echinochloa colonum, junglerice), dose to kill or control 50 percent): <4.38 g ae/ha
GR90 ECHCO (ECHCO (Echinochloa colonum, junglerice), dose to kill or control 90 percent): 18.6 g ae/ha
Mean Visual Injury (%)-21 Days After Application LEFCH (LEFCH (Leptochloa chinensis, Chinese sprangletop), 4.38 g ae/ha): 0%
Mean Visual Injury (%)-21 Days After Application LEFCH (LEFCH (Leptochloa chinensis, Chinese sprangletop), 8.75 g ae/ha): 17%
Mean Visual Injury (%)-21 Days After Application LEFCH (LEFCH (Leptochloa chinensis, Chinese sprangletop), 17.5 g ae/ha): 30%
Mean Visual Injury (%)-21 Days After Application LEFCH (LEFCH (Leptochloa chinensis, Chinese sprangletop), 35 g ae/ha): 40%
Mean Visual Injury (%)-21 Days After Application LEFCH (LEFCH (Leptochloa chinensis, Chinese sprangletop), 70 g ae/ha): 37%
GR50 LEFCH (LEFCH (Leptochloa chinensis, Chinese sprangletop), dose to kill or control 50 percent): >70 g ae/ha
GR90 LEFCH (LEFCH (Leptochloa chinensis, Chinese sprangletop), dose to kill or control 90 percent): >70 g ae/ha
Mean Visual Injury (%)-21 Days After Application ORYSA ‘Clearfield 171’ (ORYSA (Oryza sativa ‘Clearfield 171’, rice), 4.38 g ae/ha): 0%
Mean Visual Injury (%)-21 Days After Application ORYSA ‘Clearfield 171’ (ORYSA (Oryza sativa ‘Clearfield 171’, rice), 8.75 g ae/ha): 3%
Mean Visual Injury (%)-21 Days After Application ORYSA ‘Clearfield 171’ (ORYSA (Oryza sativa ‘Clearfield 171’, rice), 17.5 g ae/ha): 12%
Mean Visual Injury (%)-21 Days After Application ORYSA ‘Clearfield 171’ (ORYSA (Oryza sativa ‘Clearfield 171’, rice), 35 g ae/ha): 23%
Mean Visual Injury (%)-21 Days After Application ORYSA ‘Clearfield 171’ (ORYSA (Oryza sativa ‘Clearfield 171’, rice), 70 g ae/ha): 22%
GR50 ORYSA ‘Clearfield 171’ (ORYSA (Oryza sativa ‘Clearfield 171’, rice), dose to kill or control 50 percent): >70 g ae/ha
GR90 ORYSA ‘Clearfield 171’ (ORYSA (Oryza sativa ‘Clearfield 171’, rice), dose to kill or control 90 percent): >70 g ae/ha
Mean Visual Injury (%)-21 Days After Application ORYSA ‘Wells’ (ORYSA (Oryza sativa ‘Wells’, rice), 4.38 g ae/ha): 0%
Mean Visual Injury (%)-21 Days After Application ORYSA ‘Wells’ (ORYSA (Oryza sativa ‘Wells’, rice), 8.75 g ae/ha): 0%
Mean Visual Injury (%)-21 Days After Application ORYSA ‘Wells’ (ORYSA (Oryza sativa ‘Wells’, rice), 17.5 g ae/ha): 3%
Mean Visual Injury (%)-21 Days After Application ORYSA ‘Wells’ (ORYSA (Oryza sativa ‘Wells’, rice), 35 g ae/ha): 8%
Mean Visual Injury (%)-21 Days After Application ORYSA ‘Wells’ (ORYSA (Oryza sativa ‘Wells’, rice), 70 g ae/ha): 7%
GR50 ORYSA ‘Wells’ (ORYSA (Oryza sativa ‘Wells’, rice), dose to kill or control 50 percent): >70 g ae/ha
GR90 ORYSA ‘Wells’ (ORYSA (Oryza sativa ‘Wells’, rice), dose to kill or control 90 percent): >70 g ae/ha
Mean Visual Injury (%)-21 Days After Application SCPJU (SCPJU (Scirpus juncoides, Japanese bulrush), 4.38 g ae/ha): 100%
Mean Visual Injury (%)-21 Days After Application SCPJU (SCPJU (Scirpus juncoides, Japanese bulrush), 8.75 g ae/ha): 100%
Mean Visual Injury (%)-21 Days After Application SCPJU (SCPJU (Scirpus juncoides, Japanese bulrush), 17.5 g ae/ha): 100%
Mean Visual Injury (%)-21 Days After Application SCPJU (SCPJU (Scirpus juncoides, Japanese bulrush), 35 g ae/ha): 100%
Mean Visual Injury (%)-21 Days After Application SCPJU (SCPJU (Scirpus juncoides, Japanese bulrush), 70 g ae/ha): 100%
GR50 SCPJU (SCPJU (Scirpus juncoides, Japanese bulrush), dose to kill or control 50 percent): <4.38 g ae/ha
GR90 SCPJU (SCPJU (Scirpus juncoides, Japanese bulrush), dose to kill or control 90 percent): <4.38 g ae/ha
Mean Visual Injury (%)-21 Days After Application SEBEX (SEBEX (Sesbania exaltata, hemp sesbania), 4.38 g ae/ha): 100%
Mean Visual Injury (%)-21 Days After Application SEBEX (SEBEX (Sesbania exaltata, hemp sesbania), 8.75 g ae/ha): 100%
Mean Visual Injury (%)-21 Days After Application SEBEX (SEBEX (Sesbania exaltata, hemp sesbania), 17.5 g ae/ha): 100%
Mean Visual Injury (%)-21 Days After Application SEBEX (SEBEX (Sesbania exaltata, hemp sesbania), 35 g ae/ha): 100%
Mean Visual Injury (%)-21 Days After Application SEBEX (SEBEX (Sesbania exaltata, hemp sesbania), 70 g ae/ha): 100%
GR50 SEBEX (SEBEX (Sesbania exaltata, hemp sesbania), dose to kill or control 50 percent): <4.38 g ae/ha
GR90 SEBEX (SEBEX (Sesbania exaltata, hemp sesbania), dose to kill or control 90 percent): <4.38 g ae/ha
